Experimental data: patent US7041698B2, “Hepatitis C virus inhibitors” (Bristol-Myers Squibb Company, priority 2002, dated 2006)

Target: T1, NS3/4A J4L6S strain (Hepatitis C virus genotype 1b, UniProt O92972, C1454S/C1711G)
T1 construct: DNA encoding the recombinant HCV NS3/4A protease complex (amino acids 1027 to 1711) for these strains; His tag (inferred from pET21b vector and Ni-NTA purification); made in house; host or cells: Escherichia coli BL21 (DE3)
Assay: Recombinant HCV NS3/4A protease complex FRET peptide assay, J4L6S strain
Type: biochemical, HCV genotype 1b
Excerpt: Recombinant HCV NS3/4A Protease Complex FRET Peptide Assay
The purpose of this in vitro assay was to measure the inhibition of HCV NS3 protease complexes, derived from the BMS, H77C or J416S strains, as described below, by compounds of the present invention. This assay provides an indication of how effective compounds of the present invention would be in inhibiting HCV proteolytic activity.
Serum from an HCV-infected patient was obtained from Dr. T. Wright, San Francisco Hospital. An engineered full-length cDNA (compliment deoxyribonucleic acid) template of the HCV genome (BMS strain) was constructed from DNA fragments obtained by reverse transcription-PCR (RT-PCR) of serum RNA (ribonucleic acid) and using primers selected on the basis of homology between other genotype 1a strains. From the determination of the entire genome sequence, a genotype 1a was assigned to the HCV isolate according to the classification of Simmonds et al. (See P Simmonds, K A Rose, S Graham, S W Chan, F McOmish, B C Dow, E A Follett, P L Yap and H Marsden, J. Clin. Microbiol., 31(6), 1493–1503 (1993)). […]

T1 sequence (O92972 1027-1711 C1454S/C1711G): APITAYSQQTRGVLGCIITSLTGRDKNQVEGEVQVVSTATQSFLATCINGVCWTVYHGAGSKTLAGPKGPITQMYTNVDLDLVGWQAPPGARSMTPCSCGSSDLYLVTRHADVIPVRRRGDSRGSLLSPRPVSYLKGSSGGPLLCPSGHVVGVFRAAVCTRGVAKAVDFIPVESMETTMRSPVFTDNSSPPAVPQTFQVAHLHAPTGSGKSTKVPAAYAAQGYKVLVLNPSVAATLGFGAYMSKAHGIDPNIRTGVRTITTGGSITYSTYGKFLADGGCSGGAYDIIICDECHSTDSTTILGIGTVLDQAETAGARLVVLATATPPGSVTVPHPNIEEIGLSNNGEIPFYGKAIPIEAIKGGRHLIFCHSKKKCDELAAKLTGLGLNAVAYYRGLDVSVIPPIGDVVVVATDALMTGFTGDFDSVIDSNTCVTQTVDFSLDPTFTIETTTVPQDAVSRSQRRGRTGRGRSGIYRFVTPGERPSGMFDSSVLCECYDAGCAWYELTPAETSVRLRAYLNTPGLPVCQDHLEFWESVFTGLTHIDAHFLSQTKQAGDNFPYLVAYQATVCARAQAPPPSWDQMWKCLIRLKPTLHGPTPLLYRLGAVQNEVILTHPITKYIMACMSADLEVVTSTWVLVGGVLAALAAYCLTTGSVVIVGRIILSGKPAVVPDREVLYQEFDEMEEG

With C=CC1C[C@]1(NC(=O)[C@@H]1C[C@@H](OC(=O)Nc2ccccc2-c2ccccc2)CN1C(=O)[C@@H](NC(=O)OC(C)(C)C)C(C)(C)C)C(=O)NS(=O)(=O)C1CC1 (stereo partly drawn) [Compound 8, BocNH-P3(t-BuGly)-P2(Hyp(O—CO(NH-biphen-2-yl)))-P1(1R,2S VinylAcca)—CONHSO2Cyclopropane] the IC50 was 9.5 nM.
